COC(=O)Nc1nc2ccc(Sc3ccccc3)cc2[nH]1
solubility (mole fraction)
Settings | 283.15 K | 288.15 K | 293.15 K | 298.15 K | 303.15 K | 308.15 K | 313.15 K | 318.15 K | 323.15 K | 328.15 K
in 1,4-dioxane | – | 0.00107 | 0.00124 | 0.00148 | 0.00169 | 0.00195 | 0.00222 | 0.00256 | 0.00289 | 0.00326
in NMP | 0.0348 | 0.0389 | 0.0435 | 0.0485 | 0.0537 | 0.059 | 0.0651 | 0.0711 | 0.0773 | 0.0843
in acetone | 0.000176 | 0.000192 | 0.000211 | 0.000228 | 0.000246 | 0.000265 | 0.000287 | 0.000308 | 0.00033 | 0.000353
in water | 3.48e-06 | 4.4e-06 | 5.61e-06 | 7.12e-06 | 9.14e-06 | 1.15e-05 | 1.43e-05 | 1.77e-05 | 2.14e-05 | 2.63e-05
